Experimental data taken from patent publication US12528819B2 (priority 2016, dated 2026).
Entries after “also recorded” stand apart in the source; their conditions may differ.

Tests used:
aged-impaired (AI) rats = experiment: Radial Arm Maze (RAM) behavioral task, spatial memory retention; type: in vivo, rat; conditions: four-hour delay
Experimental: The effects of methyl 3,5-diphenylpyridazine-4-carboxylate on the in vivo spatial memory retention of aged-impaired (AI) rats were assessed in a Radial Arm Maze (RAM) behavioral task using vehicle control and four different dosage levels of methyl 3,5-diphenylpyridazine-4-carboxylate (0.1 mg/kg, 0.3 mg/kg, 1 mg/kg and 3 mg/kg, ip). RAM behavioral tasks were performed on eight AI rats. All five treatment conditions (vehicle and four dosage levels) were tested on all eight rats.
The RAM apparatus used consisted of eight equidistantly-spaced arms. An elevated maze arm (7 cm width×75 cm length) projected from each facet of an octagonal center platform (30 cm diameter, 51.5 cm height). Clear side walls on the arms were 10 cm high and were angled at 65° to form a trough. A food well (4 cm diameter, 2 cm deep) was located at the distal end of each arm. Froot Loops™ (Kellogg Company) were used as rewards. Blocks constructed of Plexiglas™ (30 cm height×12 cm width) could be positioned to prevent entry to any arm. Numerous extra maze cues surrounding the apparatus were also provided.
The AI rats were initially subjected to a pre-training test (Chappell et al. Neuropharmacology 37: 481-487, 1998). The pre-training test consisted of a habituation phase (4 days), a training phase on the standard win-shift task (18 days) and another training phase (14 days) in which a brief delay was imposed between presentation of a subset of arms designated by the experimenter (e.g., 5 arms available and 3 arms blocked) and completion of the eight-arm win-shift task (i.e., with all eight arms available).
In the habituation phase, rats were familiarized to the maze for an 8-minute session on four consecutive days. In each of these sessions, food rewards were scattered on the RAM, initially on the center platform and arms and then progressively confined to the arms. After this habituation phase, a standard training protocol was used, in which a food pellet was located at the end of each arm. Rats received one trial each day for 18 days. Each daily trial terminated when all eight food pellets had been obtained or when either 16 choices were made or 15 minutes had elapsed. After completion of this training phase, a second training phase was carried out in which the memory demand was increased by imposing a brief delay during the trial. At the beginning of each trial, three arms of the eight-arm maze were blocked. Rats were allowed to obtain food on the five arms to which access was permitted during this initial “information phase” of the trial. Rats were then removed from the maze for 60 seconds, during which time the barriers on the maze were removed, thus allowing access to all eight arms. […]

GABAA α5 receptor = molecular target: T1, GABAA α5 receptor (Rattus norvegicus, UniProt P18508+P19969); experiment: GABAA α5 receptor occupancy with Ro 15-4513 tracer (hippocampus vs cerebellum); type: in vivo; conditions: i.v.
T1 construct: from tissue; host or cells: rat brain in vivo; hippocampus versus cerebellum
T1 sequence (P19969 32-464 limits assumed): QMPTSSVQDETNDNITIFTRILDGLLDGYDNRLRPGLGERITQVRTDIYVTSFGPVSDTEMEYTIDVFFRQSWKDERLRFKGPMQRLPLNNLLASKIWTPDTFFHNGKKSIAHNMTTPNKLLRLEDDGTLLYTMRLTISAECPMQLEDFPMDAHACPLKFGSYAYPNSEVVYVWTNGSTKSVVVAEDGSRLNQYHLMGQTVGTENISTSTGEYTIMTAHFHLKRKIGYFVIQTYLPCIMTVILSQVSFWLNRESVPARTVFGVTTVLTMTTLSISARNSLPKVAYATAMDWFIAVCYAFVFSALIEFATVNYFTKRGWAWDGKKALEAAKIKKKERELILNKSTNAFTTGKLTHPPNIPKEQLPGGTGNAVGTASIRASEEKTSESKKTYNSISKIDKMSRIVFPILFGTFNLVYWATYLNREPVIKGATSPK
T1 sequence (P18508 39-466): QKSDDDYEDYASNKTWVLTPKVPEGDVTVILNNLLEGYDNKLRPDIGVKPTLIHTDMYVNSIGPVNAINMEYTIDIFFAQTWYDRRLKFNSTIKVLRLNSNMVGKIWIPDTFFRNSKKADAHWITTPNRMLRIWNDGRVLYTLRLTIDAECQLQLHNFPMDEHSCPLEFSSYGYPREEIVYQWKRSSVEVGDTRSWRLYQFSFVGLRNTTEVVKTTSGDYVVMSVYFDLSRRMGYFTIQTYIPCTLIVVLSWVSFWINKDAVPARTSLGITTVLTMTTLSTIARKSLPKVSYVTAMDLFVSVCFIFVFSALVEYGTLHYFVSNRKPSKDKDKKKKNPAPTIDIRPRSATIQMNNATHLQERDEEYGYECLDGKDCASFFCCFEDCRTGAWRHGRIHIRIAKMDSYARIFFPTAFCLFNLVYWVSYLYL
Description: Food and water were available ad libitum.

α5β2γ2 subtype GABAAR = molecular target: T2, α5β2γ2 subtype GABAAR (Homo sapiens, UniProt P18507+P31644); experiment: Positive allosteric modulator activity: potentiation of EC20 GABA current in oocytes; type: cell-based; conditions: read-out: GABA α5 Functional Data (potentiation), @ 100 nM, reported as ranges
T2 construct: expressed in transfected cells
T2 sequence (P31644 32-462): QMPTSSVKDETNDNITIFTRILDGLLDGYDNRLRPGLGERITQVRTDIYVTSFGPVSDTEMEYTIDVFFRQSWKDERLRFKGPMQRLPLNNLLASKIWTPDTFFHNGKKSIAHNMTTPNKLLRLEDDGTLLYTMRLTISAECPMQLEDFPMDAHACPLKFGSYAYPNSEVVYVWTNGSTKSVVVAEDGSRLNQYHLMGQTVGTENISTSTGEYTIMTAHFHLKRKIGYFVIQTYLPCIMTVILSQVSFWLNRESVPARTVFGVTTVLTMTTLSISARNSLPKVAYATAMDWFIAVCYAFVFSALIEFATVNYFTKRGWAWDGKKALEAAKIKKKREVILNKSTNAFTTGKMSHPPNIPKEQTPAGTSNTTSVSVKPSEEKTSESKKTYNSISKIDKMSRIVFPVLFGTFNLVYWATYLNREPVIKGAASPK
T2 sequence (P47870 25-512 partner limits assumed): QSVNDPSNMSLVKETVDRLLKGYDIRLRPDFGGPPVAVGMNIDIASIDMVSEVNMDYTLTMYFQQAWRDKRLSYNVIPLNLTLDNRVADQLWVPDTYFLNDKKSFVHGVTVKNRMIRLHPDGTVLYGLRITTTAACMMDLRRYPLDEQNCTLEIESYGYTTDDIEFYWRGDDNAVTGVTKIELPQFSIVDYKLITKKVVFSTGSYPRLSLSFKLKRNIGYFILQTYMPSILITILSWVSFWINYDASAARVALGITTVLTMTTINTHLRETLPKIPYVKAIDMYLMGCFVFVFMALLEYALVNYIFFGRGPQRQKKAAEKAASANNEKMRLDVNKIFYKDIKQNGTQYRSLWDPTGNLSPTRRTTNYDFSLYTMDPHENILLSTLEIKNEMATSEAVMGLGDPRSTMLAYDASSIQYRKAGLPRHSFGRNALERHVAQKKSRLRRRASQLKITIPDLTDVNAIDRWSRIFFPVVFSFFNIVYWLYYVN
T2 sequence (P18507 40-467 limits assumed): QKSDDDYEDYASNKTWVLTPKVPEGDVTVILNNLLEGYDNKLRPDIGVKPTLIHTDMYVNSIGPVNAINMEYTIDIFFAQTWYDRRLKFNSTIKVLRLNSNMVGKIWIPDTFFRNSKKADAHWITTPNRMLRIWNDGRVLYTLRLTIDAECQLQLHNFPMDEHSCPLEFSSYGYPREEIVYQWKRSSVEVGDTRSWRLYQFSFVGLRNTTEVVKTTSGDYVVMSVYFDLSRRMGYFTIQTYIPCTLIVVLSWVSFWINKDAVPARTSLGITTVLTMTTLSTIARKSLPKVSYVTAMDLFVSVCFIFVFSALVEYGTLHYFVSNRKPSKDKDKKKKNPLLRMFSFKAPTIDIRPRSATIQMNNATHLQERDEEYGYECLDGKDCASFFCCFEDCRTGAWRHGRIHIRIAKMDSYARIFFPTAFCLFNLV
Procedure, shortened: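 Xenopus oocytes injected with 1 ng α5:β2:γ2 cDNA (1:1:10 by weight) and recorded on day 2 by two-electrode voltage clamp under MBS superfusion. Potentiation (%) = Itest/IGABA at EC20 GABA; each oocyte used for one concentration only.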

Compound	activation at 0.1 µM (α5β2γ2 subtype GABAAR)	also measured
CCOC(=O)c1ncn2c1Cn1c(C)nnc1-c1cc(OC)ccc1-2	–	memory performance relative to vehicle control (aged-impaired (AI) rats; 3 mg/kg, t(7)=4.13, p=0.004, or t(7)=3.08, p=0.018): significantly improved memory performance; memory performance relative to vehicle control (aged-impaired (AI) rats; 10 mg/kg, p 0.026): significantly improved memory performance; effect on Ro 15-4513 binding in hippocampus (GABAA α5 receptor; 0.01-10 mg/kg): reduced; also recorded: blocked; effect on Ro 15-4513 levels (binding) in cerebellum (GABAA α5 receptor; 0.01-10 mg/kg): without affecting; also recorded: did not affect; GABAA α5 receptor occupancy (GABAA α5 receptor; 10 mg/kg): > 90%
CCOC(=O)c1ncn2c1CN(C)C(=O)c1cc(N=[N+]=[N-])ccc1-2 [Ro 15-4513]	–	levels of Ro 15-4513 in hippocampus compared with cerebellum (GABAA α5 receptor; tracer 1 μg/kg, after vehicle administration): > 5 fold
COc1ccc2c(c1)-n1nncc1Cc1c(C#CCc3cccc(OC(F)(F)F)c3)ncn1-2 [Compound 418]	20 to 50%	–
C#Cc1ncn2c1Cn1c(COc3ccccc3)nnc1-c1cc(Cl)ccc1-2 [Compound 205]	20 to 50%	–
COCc1nnc2n1Cc1c(C3=N[C@@H](c4ccccc4)CO3)ncn1-c1ccc(OC)cc1-2 [Compound 343]	20 to 50%	–
CC(C)C#Cc1ncn2c1Cc1cnnn1-c1cc(Cl)ccc1-2 [Compound 415]	20 to 50%	–
COc1ccc2c(c1)-n1nncc1Cc1c(C#Cc3cccnc3)ncn1-2 [Compound 407]	5 to 20%	–
COc1ccc2c(c1)-n1nnc(COc3cccc(F)c3)c1Cc1c(-c3noc(C)n3)ncn1-2 [Compound 168]	5 to 20%	–
COCc1nnc2n1Cc1c(C#Cc3ccccc3)ncn1-c1ccc(Cl)cc1-2 [Compound 285]	5 to 20%	–
COCc1nnc2n1Cc1c(C3=N[C@@H](c4ccccc4)CO3)ncn1-c1ccc(Cl)cc1-2 [Compound 264]	20 to 50%	–
COCc1nnc2n1Cc1c(C3=N[C@@H](c4ccc(C(F)(F)F)cc4)CO3)ncn1-c1ccc(Cl)cc1-2 [Compound 337]	20 to 50%	–
CC(C)c1nc(-c2ncn3c2Cn2c(COc4cccc(F)c4)nnc2-c2cc(F)ccc2-3)no1 [Compound 188]	20 to 50%	–
CCOCc1nnc2n1Cc1c(-c3noc(C(C)C)n3)ncn1-c1ccc(OC)cc1-2 [Compound 173]	> 50%	–
Clc1ccc([C@H]2COC(c3ncn4c3Cc3cnnn3-c3cc(Cl)ccc3-4)=N2)cc1 [Compound 361]	20 to 50%	–
COc1ccc2c(c1)-n1nncc1Cc1c(C3=N[C@H](c4ccccc4)CO3)ncn1-2 [Compound 290]	20 to 50%	–
COc1ccc2c(c1)-n1nnc(COc3ccccc3F)c1Cc1c(-c3noc(C)n3)ncn1-2 [Compound 181]	20 to 50%	–

Compound	activation at 0.1 µM (α5β2γ2 subtype GABAAR)	also measured
FC(F)(F)CC#Cc1ncn2c1Cc1cnnn1-c1cc(Cl)ccc1-2 [Compound 398]	20 to 50%	–
Cc1nc(-c2ncn3c2Cn2c(COc4ccccc4)nnc2-c2cc(F)ccc2-3)no1 [Compound 148]	20 to 50%	–
COCc1nnc2n1Cc1c(C3=N[C@@H](c4cccc(OC)c4)CO3)ncn1-c1ccc(Cl)cc1-2 [Compound 333]	5 to 20%	–
CCc1nc(-c2ncn3c2Cc2c(Cc4ccccc4)nnn2-c2cc(OC)ccc2-3)no1 [Compound 194]	> 50%	–
COCc1nnc2n1Cc1c(C3=N[C@@H](c4ccc(Cl)cc4)CO3)ncn1-c1ccc(Cl)cc1-2 [Compound 334]	20 to 50%	–
COc1ccc2c(c1)-n1nncc1Cc1c(C#Cc3ccccn3)ncn1-2 [Compound 408]	5 to 20%	–
CC(C)C#Cc1ccc2c(c1)-n1nncc1Cc1c(Br)ncn1-2 [Compound 454]	5 to 20%	–
COc1ccc2c(c1)-n1nncc1Cc1c(C3=N[C@@H](c4ccc(F)cc4)CO3)ncn1-2 [Compound 367]	5 to 20%	–
COCc1nnc2n1Cc1c(C3=N[C@H](c4ccccc4)CO3)ncn1-c1ccc(OC)cc1-2 [Compound 340]	20 to 50%	–
COc1ccc2c(c1)-c1nnc(COc3cccc4ccccc34)n1Cc1c(-c3noc(C(C)C)n3)ncn1-2 [Compound 177]	> 50%	–
FC(F)=Cc1ncn2c1Cn1c(COc3ccccc3)nnc1-c1cc(Cl)ccc1-2 [Compound 199]	20 to 50%	–
C#Cc1ccc2c(c1)-c1nnc(COC)n1Cc1c(C3=N[C@@H](c4ccccc4)CO3)ncn1-2 [Compound 301]	5 to 20%	–
COCc1nnc2n1Cc1c(-c3nc(C(C)C)no3)ncn1-c1ccc(Cl)cc1-2 [Compound 206]	5 to 20%	–
Clc1ccc2c(c1)-c1nnc(COc3ccccc3)n1Cc1c(-c3ncco3)ncn1-2 [Compound 349]	5 to 20%	–
CCOCc1nnc2n1Cc1c(C#Cc3ccccc3C)ncn1-c1ccc(Cl)cc1-2 [Compound 311]	5 to 20%	–
